pKi: −log10 of the molar value. Structures can show the parent of a compound that is named as a salt. Where two headings read alike, the source gives them in different places.
What was measured:
mouse TAAR1 = mouse TAAR1 (Mus musculus (Mouse), UniProt Q923Y8); experiment: Radioligand binding assay on mouse TAAR1; details: for Ki: read-out: Ki (μM) mouse, mouse TAAR1, membranes of HEK-293 cells, radioligand displacement
Method: (§1) For the generation of stably transfected cell lines HEK293 cells were transfected with the pIRESneo2 expression plasmids containing the TAAR coding sequences (described above) with Lipofectamine 2000 (Invitrogen) according to the instructions of the manufacturer, and 24 hrs post transfection the culture medium was supplemented with 1 mg/ml G418 (Sigma, Buchs, Switzerland). […] Radioligand Binding Assay on Rat TAAR1 Membrane Preparation and Radioligand Binding. […] Cells were released from culture flasks using trypsin/EDTA, harvested, washed twice with ice-cold PBS (without Ca^2+ and Mg^2+), pelleted at 1,000 rpm for 5 min at 4° C., frozen and stored at −80° C. Frozen pellets were suspended in 20 ml HEPES-NaOH (20 mM, pH 7.4) containing 10 mM EDTA and homogenized with a Polytron (PT 6000, Kinematica) at 14,000 rpm for 20 s. The homogenate was centrifuged at 48,000×g for 30 min at 4° C. Subsequently, the supernatant was removed and discarded, and the pellet resuspended in 20 ml HEPES-NaOH (20 mM, pH 7.4) containing 0.1 mM EDTA using the Polytron (20 s at 14,000 rpm). This procedure was repeated and the final pellet resuspended in HEPES-NaOH containing 0.1 mM EDTA and homogenized using the Polytron. Typically, aliquots of 2 ml membrane portions were stored at −80° C. With each new membrane batch the dissociation constant (Kd) was determined via a saturation curve. […] Nonspecific binding was defined as the amount of ^3[H]-(S)-4-[(ethyl-phenyl-amino)-methyl]-4,5-dihydro-oxazol-2-ylamine bound in the presence of 10 μM unlabeled ligand. All compounds were tested at a broad range of concentrations (10 pM to 10 μM) in duplicates. […] The 96 deep well plates were incubated for 1 hr at 4° C. Incubations were terminated by rapid filtration through Unifilter-96 plates (Packard Instrument Company) and glass filters GF/C (Perkin Elmer) presoaked for 1 hr in polyethylenimine (0.3%) and washed 3 times with 1 ml of cold binding buffer. After addition of 45 μl of Microscint 40 (PerkinElmer) the Unifilter-96 plate was sealed and after 1 hr the radioactivity counted using a TopCount Microplate Scintillation Counter (Packard Instrument Company). Radioligand Binding Assay on Mouse TAAR1 Membrane Preparation and Radioligand Binding. […] Cells were released from culture flasks using trypsin/EDTA, harvested, washed twice with ice-cold PBS (without Ca^2+ and Mg^2+), pelleted at 1,000 rpm for 5 min at 4° C., frozen and stored at −80° C. Frozen pellets were suspended in 20 ml HEPES-NaOH (20 mM, pH 7.4) containing 10 mM EDTA and homogenized with a Polytron (PT 6000, Kinematica) at 14,000 rpm for 20 s. The homogenate was centrifuged at 48,000×g for 30 min at 4° C. Subsequently, the supernatant was removed and discarded, and the pellet resuspended in 20 ml HEPES-NaOH (20 mM, pH 7.4) containing 0.1 mM EDTA using the Polytron (20 s at 14,000 rpm). This procedure was repeated and the final pellet resuspended in HEPES-NaOH containing 0.1 mM EDTA and homogenized using the Polytron. Typically, aliquots of 2 ml membrane portions were stored at −80° C. With each new membrane batch the dissociation constant (Kd) was determined via a saturation curve.

rat TAAR1 = rat TAAR1 (Rattus norvegicus (Rat), UniProt Q923Y9); experiment: Radioligand binding assay on rat TAAR1; details: for Ki: read-out: Ki (μM) rat, rat TAAR1, membranes of HEK-293 cells, radioligand displacement;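 for all read-outs here: stably transfected HEK293 cell membranes with a tritiated radioligand, 1 h incubation at 4 °C, nonspecific binding taken as binding with 10 µM unlabeled ligand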
Sequence of rat TAAR1 (Q923Y9 whole entry): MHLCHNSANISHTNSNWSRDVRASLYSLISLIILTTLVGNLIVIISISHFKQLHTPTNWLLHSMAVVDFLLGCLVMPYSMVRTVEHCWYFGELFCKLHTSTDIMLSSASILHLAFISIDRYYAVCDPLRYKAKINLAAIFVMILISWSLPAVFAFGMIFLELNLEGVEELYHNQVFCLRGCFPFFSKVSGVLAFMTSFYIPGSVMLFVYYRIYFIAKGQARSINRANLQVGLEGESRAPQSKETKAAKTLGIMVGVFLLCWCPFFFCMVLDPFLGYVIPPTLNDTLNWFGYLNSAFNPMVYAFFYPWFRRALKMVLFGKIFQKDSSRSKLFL
Method: as §1

Sequence of mouse TAAR1 (Q923Y8 whole entry): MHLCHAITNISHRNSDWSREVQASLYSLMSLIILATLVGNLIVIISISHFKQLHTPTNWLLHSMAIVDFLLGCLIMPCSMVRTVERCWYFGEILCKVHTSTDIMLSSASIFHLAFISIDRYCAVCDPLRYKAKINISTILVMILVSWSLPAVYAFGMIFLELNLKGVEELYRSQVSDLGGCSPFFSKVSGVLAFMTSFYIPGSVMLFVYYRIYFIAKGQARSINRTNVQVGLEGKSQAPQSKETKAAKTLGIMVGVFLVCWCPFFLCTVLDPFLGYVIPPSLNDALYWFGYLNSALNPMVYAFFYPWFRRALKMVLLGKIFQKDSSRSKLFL

## O=C(Nc1ccc(C2CCNC2)cc1)c1cnn(-c2ccc(OC(F)F)cc2)c1 (racemic) [Example 54, (RS)-1-(4-difluoromethoxy-phenyl)-1H-pyrazole-4-carboxylic acid (4-pyrrolidin-3-yl-phenyl)-amide]
Mouse TAAR1
  pKi: 8.80
Rat TAAR1
  pKi: 8.96

## O=C(Nc1ccc(C2CCCNC2)cc1)c1cnn(-c2ccc(OC(F)F)cc2)c1 (racemic) [Example 55, (RS)-1-(4-difluoromethoxy-phenyl)-1H-pyrazole-4-carboxylic acid (4-piperidin-3-yl-phenyl)-amide hydrochloride]
Mouse TAAR1
  pKi: 8.70
Rat TAAR1
  pKi: 8.52

## Cc1c(C(=O)Nc2ccc([C@H]3CNCCO3)cc2)cnn1-c1ccccc1 [Example 1, (S)-5-methyl-N-(4-(morpholin-2-yl)phenyl)-1-phenyl-1H-pyrazole-4-carboxamide hydrochloride]
Mouse TAAR1
  Ki: 0.0086 µM
Rat TAAR1
  Ki: 0.229 µM

## Nc1c(C(=O)Nc2ccc([C@H]3CNCCO3)cc2)cnn1-c1ccc(F)cc1 [Example 2, (S)-5-amino-1-(4-fluorophenyl)-N-(4-(morpholin-2-yl)phenyl)-1H-pyrazole-4-carboxamide dihydrochloride]
Mouse TAAR1
  Ki: 0.0144 µM
Rat TAAR1
  Ki: 0.401 µM

## COc1ccc(-n2cc(C(=O)Nc3ccc([C@H]4CNCCO4)cc3)cn2)cc1 [Example 3, (S)-1-(4-methoxyphenyl)-N-(4-(morpholin-2-yl)phenyl)-1H-pyrazole-4-carboxamide hydrochloride]
Mouse TAAR1
  Ki: 0.0025 µM
Rat TAAR1
  Ki: 0.0165 µM

## O=C(Nc1ccc([C@H]2CNCCO2)cc1)c1cnn(-c2ccc(F)cc2)c1 [Example 4, (S)-1-(4-fluorophenyl)-N-(4-(morpholin-2-yl)phenyl)-1H-pyrazole-4-carboxamide hydrochloride]
Mouse TAAR1
  Ki: 0.0007 µM
Rat TAAR1
  Ki: 0.0033 µM

## O=C(Nc1ccc([C@H]2CNCCO2)cc1)c1cnn(-c2cccc(F)c2)c1 [Example 5, (S)-1-(3-fluorophenyl)-N-(4-(morpholin-2-yl)phenyl)-1H-pyrazole-4-carboxamide hydrochloride]
Mouse TAAR1
  Ki: 0.0015 µM
Rat TAAR1
  Ki: 0.0039 µM

## N#Cc1ccc(-n2cc(C(=O)Nc3ccc([C@H]4CNCCO4)cc3)cn2)cc1 [Example 6, (S)-1-(4-cyanophenyl)-N-(4-(morpholin-2-yl)phenyl)-1H-pyrazole-4-carboxamide hydrochloride]
Mouse TAAR1
  Ki: 0.0028 µM
Rat TAAR1
  Ki: 0.007 µM

## O=C(Nc1ccc([C@H]2CNCCO2)cc1)c1cnn(-c2ccc(Cl)cn2)c1 [Example 7, (S)-1-(5-chloropyridin-2-yl)-N-(4-(morpholin-2-yl)phenyl)-1H-pyrazole-4-carboxamide hydrochloride]
Mouse TAAR1
  Ki: 0.0016 µM
Rat TAAR1
  Ki: 0.0046 µM

## N#Cc1ccc(-n2cc(C(=O)Nc3ccc([C@H]4CNCCO4)cc3)cn2)nc1 [Example 8, (S)-1-(5-cyanopyridin-2-yl)-N-(4-(morpholin-2-yl)phenyl)-1H-pyrazole-4-carboxamide hydrochloride]
Mouse TAAR1
  Ki: 0.0089 µM
Rat TAAR1
  Ki: 0.0147 µM

## O=C(Nc1ccc([C@H]2CNCCO2)cc1)c1cnn(-c2ccc(Br)cn2)c1 [Example 9, (S)-1-(5-bromopyridin-2-yl)-N-(4-(morpholin-2-yl)phenyl)-1H-pyrazole-4-carboxamide hydrochloride]
Mouse TAAR1
  Ki: 0.0017 µM
Rat TAAR1
  Ki: 0.0043 µM

## O=C(Nc1ccc([C@H]2CNCCO2)cc1)c1cnn(-c2ccc(I)cn2)c1 [Example 10, (S)-1-(5-iodopyridin-2-yl)-N-(4-(morpholin-2-yl)phenyl)-1H-pyrazole-4-carboxamide hydrochloride]
Mouse TAAR1
  Ki: 0.0012 µM
Rat TAAR1
  Ki: 0.0041 µM

## O=C(Nc1ccc([C@H]2CNCCO2)cc1)c1cnn(-c2ccc(C(F)(F)F)cn2)c1 [Example 11, (S)—N-(4-(morpholin-2-yl)phenyl)-1-(5-(trifluoromethyl)pyridin-2-yl)-1H-pyrazole-4-carboxamide hydrochloride]
Mouse TAAR1
  Ki: 0.0023 µM
Rat TAAR1
  Ki: 0.0023 µM

## O=C(Nc1ccc([C@@H]2CNCCO2)cc1)c1cnn(-c2ccc(F)cc2)c1 [Example 12, (R)-1-(4-fluorophenyl)-N-(4-(morpholin-2-yl)phenyl)-1H-pyrazole-4-carboxamide hydrochloride]
Mouse TAAR1
  Ki: 0.0012 µM
Rat TAAR1
  Ki: 0.0011 µM

## N#Cc1cccc(-n2cc(C(=O)Nc3ccc([C@H]4CNCCO4)cc3)cn2)c1 [Example 13, (S)-1-(3-cyanophenyl)-N-(4-(morpholin-2-yl)phenyl)-1H-pyrazole-4-carboxamide hydrochloride]
Mouse TAAR1
  Ki: 0.0023 µM
Rat TAAR1
  Ki: 0.0072 µM

## O=C(Nc1ccc([C@H]2CNCCO2)cc1)c1cnn(-c2cc(C(F)(F)F)ccn2)c1 [Example 14, (S)—N-(4-(morpholin-2-yl)phenyl)-1-(4-(trifluoromethyl)pyridin-2-yl)-1H-pyrazole-4-carboxamide hydrochloride]
Mouse TAAR1
  Ki: 0.0013 µM
Rat TAAR1
  Ki: 0.0019 µM

## O=C(Nc1ccc([C@H]2CNCCO2)cc1)c1cnn(-c2cc(Cl)ccn2)c1 [Example 15, (S)-1-(4-chloropyridin-2-yl)-N-(4-(morpholin-2-yl)phenyl)-1H-pyrazole-4-carboxamide hydrochloride]
Mouse TAAR1
  Ki: 0.0016 µM
Rat TAAR1
  Ki: 0.0036 µM

## O=C(Nc1ccc([C@H]2CNCCO2)cc1)c1cnn(-c2ccnc(Br)c2)c1 [Example 16, (S)-1-(2-bromopyridin-4-yl)-N-(4-(morpholin-2-yl)phenyl)-1H-pyrazole-4-carboxamide hydrochloride]
Mouse TAAR1
  Ki: 0.0035 µM
Rat TAAR1
  Ki: 0.0029 µM

## N#Cc1cc(Br)ccc1-n1cc(C(=O)Nc2ccc([C@H]3CNCCO3)cc2)cn1 [Example 17, (S)-1-(4-bromo-2-cyanophenyl)-N-(4-(morpholin-2-yl)phenyl)-1H-pyrazole-4-carboxamide hydrochloride]
Mouse TAAR1
  Ki: 0.0021 µM
Rat TAAR1
  Ki: 0.0015 µM

## COc1cccc(-n2cc(C(=O)Nc3ccc([C@H]4CNCCO4)cc3)cn2)n1 [Example 18, (S)-1-(6-methoxypyridin-2-yl)-N-(4-(morpholin-2-yl)phenyl)-1H-pyrazole-4-carboxamide hydrochloride]
Mouse TAAR1
  Ki: 0.001 µM
Rat TAAR1
  Ki: 0.0029 µM

## O=C(Nc1ccc([C@H]2CNCCO2)cc1)c1cnn(-c2ncc(C(F)(F)F)cc2F)c1 [Example 19, (S)-1-(3-fluoro-5-(trifluoromethyl)pyridin-2-yl)-N-(4-(morpholin-2-yl)phenyl)-1H-pyrazole-4-carboxamide hydrochloride]
Mouse TAAR1
  Ki: 0.0135 µM
Rat TAAR1
  Ki: 0.016 µM

## O=C(Nc1ccc([C@H]2CNCCO2)cc1)c1cnn(-c2ccnc(Cl)c2)c1 [Example 20, (S)-1-(2-chloropyridin-4-yl)-N-(4-(morpholin-2-yl)phenyl)-1H-pyrazole-4-carboxamide hydrochloride]
Mouse TAAR1
  Ki: 0.0041 µM
Rat TAAR1
  Ki: 0.0059 µM

## O=C(Nc1ccc([C@H]2CNCCO2)cc1)c1cnn(-c2ccc(OC(F)F)cc2)c1 [Example 21, (S)-1-(4-(difluoromethoxy)phenyl)-N-(4-(morpholin-2-yl)phenyl)-1H-pyrazole-4-carboxamide hydrochloride]
Mouse TAAR1
  Ki: 0.0017 µM
Rat TAAR1
  Ki: 0.004 µM

## O=C(Nc1ccc([C@H]2CNCCO2)cc1)c1cnn(-c2cccc(OC(F)F)c2)c1 [Example 22, (S)-1-(3-(difluoromethoxy)phenyl)-N-(4-(morpholin-2-yl)phenyl)-1H-pyrazole-4-carboxamide hydrochloride]
Mouse TAAR1
  Ki: 0.001 µM
Rat TAAR1
  Ki: 0.0014 µM

## N#Cc1ccc(-n2cc(C(=O)Nc3ccc([C@H]4CNCCO4)cc3)cn2)c(F)c1 [Example 23, (S)-1-(4-cyano-2-fluorophenyl)-N-(4-(morpholin-2-yl)phenyl)-1H-pyrazole-4-carboxamide hydrochloride]
Mouse TAAR1
  Ki: 0.0041 µM
Rat TAAR1
  Ki: 0.007 µM

## N#Cc1ccc(-n2cc(C(=O)Nc3ccc([C@H]4CNCCO4)cc3)cn2)cc1F [Example 24, (S)-1-(4-cyano-3-fluorophenyl)-N-(4-(morpholin-2-yl)phenyl)-1H-pyrazole-4-carboxamide hydrochloride]
Mouse TAAR1
  Ki: 0.0175 µM
Rat TAAR1
  Ki: 0.0154 µM

## N#Cc1cc(F)ccc1-n1cc(C(=O)Nc2ccc([C@H]3CNCCO3)cc2)cn1 [Example 25, (S)-1-(2-cyano-4-fluorophenyl)-N-(4-(morpholin-2-yl)phenyl)-1H-pyrazole-4-carboxamide hydrochloride]
Mouse TAAR1
  Ki: 0.0082 µM
Rat TAAR1
  Ki: 0.0078 µM

## O=C(Nc1ccc([C@H]2CNCCO2)cc1)c1cnn(-c2ccc(OC(F)(F)F)cc2)c1 [Example 26, (S)—N-(4-(morpholin-2-yl)phenyl)-1-(4-(trifluoromethoxy)phenyl)-1H-pyrazole-4-carboxamide hydrochloride]
Mouse TAAR1
  Ki: 0.0007 µM
Rat TAAR1
  Ki: 0.0005 µM

## O=C(Nc1ccc([C@@H]2CNCCO2)cc1)c1cnn(-c2ccc(OC(F)F)cc2)c1 [Example 27, (R)-1-(4-(difluoromethoxy)phenyl)-N-(4-(morpholin-2-yl)phenyl)-1H-pyrazole-4-carboxamide hydrochloride]
Mouse TAAR1
  Ki: 0.0013 µM
Rat TAAR1
  Ki: 0.001 µM

## CCOc1cccc(-n2cc(C(=O)Nc3ccc([C@H]4CNCCO4)cc3)cn2)n1 [Example 28, (S)-1-(6-ethoxypyridin-2-yl)-N-(4-(morpholin-2-yl)phenyl)-1H-pyrazole-4-carboxamide hydrochloride]
Mouse TAAR1
  Ki: 0.0008 µM
Rat TAAR1
  Ki: 0.0022 µM

## O=C(Nc1ccc([C@H]2CNCCO2)cc1)c1cnn(-c2ccc3c(c2)OC(F)(F)O3)c1 [Example 29, (S)-1-(2,2-difluorobenzo[d][1,3]dioxol-5-yl)-N-(4-(morpholin-2-yl)phenyl)-1H-pyrazole-4-carboxamide hydrochloride]
Mouse TAAR1
  Ki: 0.0023 µM
Rat TAAR1
  Ki: 0.0014 µM

## O=C(Nc1ccc([C@H]2CNCCO2)cc1)c1cnn(-c2ncc(Cl)cn2)c1 [Example 30, (S)-1-(5-chloropyrimidin-2-yl)-N-(4-(morpholin-2-yl)phenyl)-1H-pyrazole-4-carboxamide hydrochloride]
Mouse TAAR1
  Ki: 0.0166 µM
Rat TAAR1
  Ki: 0.135 µM

## Cc1c(C(=O)Nc2ccc([C@H]3CNCCO3)cc2)cnn1-c1ccc(OC(F)F)cc1 [Example 31, (S)-1-(4-(difluoromethoxy)phenyl)-5-methyl-N-(4-(morpholin-2-yl)phenyl)-1H-pyrazole-4-carboxamide hydrochloride]
Mouse TAAR1
  Ki: 0.0013 µM
Rat TAAR1
  Ki: 0.045 µM

Reference: patent publication US9487501B2, “Pyrazole carboxamide compounds and uses thereof” (Hoffmann-La Roche Inc., priority 2012, dated 2016)
